This note sets out measurements from US4778796A, “ω-(3-pyridyl)alkenamide derivatives and anti-allergenic pharmaceutical compositions containing same” (Dainippon Pharmaceutical Co., Ltd., priority 1985, dated 1988).

One data set concerns experimental asthma. As to the kind of experiment: Inhibitory effect on experimental asthma in rats. The data set is classed as in vivo, rat (male Wistar). To be noted: Rattus norvegicus, po, 1 hour before antigen challenge. On the procedure:
(2) Inhibitory effect on experimental asthma in rats: This test was carried out by the method of Church and Miller [cf. Brit. […] Male Wistar rats (200-250 g) were sensitized by an intraperitoneal injection of 1 ml of a 0.01% egg albumin solution containing 1 mg of Al(OH)3. Two weeks later, the rats were anesthetized with 1.3 g/kg of urethane. The trachea and jugular vein were cannulated. Respiratory volume and velocity were measured by attaching one end of the tracheal cannula to respiratory volume meter connected to a carrier amplifier and an integrator. The rats were challenged by an intravenous injection of 4 mg/kg of egg ablumin 30 minutes after the anesthesia. Test compounds, dissolved or suspended in a 0.5% aqueous tragacanth solution, were administered orally 1 hour before the antigen challenge. Each group of 4 rats was used for each dose of the test compound. ED50 values were calculated from the best fit linear regression line of inhibitory rates of respiratory volume and velocity in each dose.

Data set [1] relates to contact hypersensitivity to oxazolone. As to the kind of experiment: Inhibitory effect on contact hypersensitivity to oxazolone in mice. The data set is classed as in vivo, mouse (male ICR). The conditions noted are these: topical, 24 hours after challenge. On the procedure:
(3) Inhibitory effect on contact hypersensitivity to oxazolone in mice:
This test was carried out by the method of Evans et al. [cf. Brit.
Male ICR mice (18-20 g) were used. The abdominal region of the mice was carefully clipped with an electric clipper, and 0.1 ml of a 0.5 w/v % oxazolone solution in absolute ethanol was gently rubbed into the clipped area. Five days after the sensitization 20 μl of a 0.5 w/v % oxazolone solution in acetone or chloroform, or the solution containing test compound was applied to both sides of the right ear. The left ear was not treated. Twenty-four hours after the challenge, the animals were sacrificed with diethyl ether. The circular parts (5.5 mm in diameter) of both ears were removed by punching and then weighed. The inhibitory rate was determined by comparing the ear swelling of the mice treated with oxazolone containing test compound with that of the mice treated with oxazolone. Each group of 8 mice was used for each dose of the test compound.

Data set [2] deals with histamine-induced contraction of isolated guinea pig trachea. Put plainly: Inhibitory effect on histamine-induced contraction of isolated guinea pig trachea. The arrangement: species or system guinea pig (male Hartley). On the procedure: (2) Inhibitory effect on histamine-induced contraction of isolated guinea pig trachea:
Male Hartley guinea pigs (400-700 g) were used. Zig-zag strips of guinea pig trachea were prepared by the method of Emmerson and Mackay [cf. J. Pharm. […] Dose-response curves for histamine were obtained before and 5 minutes after the addition of test compounds. Inhibitory rate was calculated from contraction heights in 3×10^-5 M of histamine without vs. with test compound.

For the next data set, the system named is human basophils. As to the kind of experiment: Inhibitory effect on histamine release induced by anti-human IgE antibody from healthy human basophils. The data set is classed as cell-based. The procedure:
(3) Inhibitory effect on histamine release induced by anti-human IgE antibody from healthy human basophils:
Basophils from nonallergic volunteers were collected by the method of Levy and Osler [cf. […] The cells were washed once with a cold Tris-A buffer at pH 7.4 (25 mM Tris, 120 mM NaCl, 5 mM KCl and 0.03% human serum albumin) containing 4 mM EDTA and twice with Tris-A buffer. After washing, the cells were resuspended at 5-10×10^6 leukocytes/ml in Tris-ACM buffer at pH 7.6 (Tris-A buffer, 0.6 mM CaCl2 and 1 mM MgCl2). One ml of the cell suspension was incubated with 0.1 ml of a solution of test compound or vehicle for 15 minutes at 37° C., and then for further 45 minutes with 0.1 ml of anti-human IgE antibody. After ice-cooling, the reaction mixtures were centrifuged at 1,200 rpm for 8 minutes at 4° C. The supernatant fluids and the cells were analysed separately for histamine by a modification of the spectrophotofluorometric technique of Shore et al. [cf. […] Histamine release rate was calculated according to the following equation. [formula] A: total histamine (supernatant+cell) B: supernatant histamine without anti-IgE
C: supernatant histamine with anti-IgE
Inhibitory rate was calculated from histamine release rates without vs. with test compound.

A short description of data set [3]: Acute lethal toxicity in mice. To be noted: mouse, in vivo; oral, mortality observed for two weeks. On the procedure: Test 3 Acute lethal toxicity in mice
Test compounds were suspended in a 0.5% aqueous tragacanth solution. LD50 values were calculated according to the method of Litchfield and Wilcoxon [cf. J. Pharmacol. Exp. Ther., 96, 99 (1949)].

Where [4] appears, read: compared with ketotifen fumarate.

SMILES strings stand for the structures. Where two headings read alike, the source gives them in different places.

For `Cc1ccc(C=CC(=O)NCCCCN2CCN(C(c3ccccc3)c3ccccc3)CC2)cn1` [Example 2, N-[3-(6-methyl-3-pyridyl)acryloyl]-4-(4-diphenylmethyl-1-piperazinyl)butylamine], the median effective dose (ED50) in the data set with experimental asthma (respiratory velocity, read-out: ED50, respiratory velocity) was 5.5 mg/kg; with experimental asthma (respiratory volume, read-out: ED50, respiratory volume), 14.4 mg/kg. Also, the figures for the “% Inhibition of ear swelling” value in data set [1] (0.3 mg/ear) and in data set [1] (1.0 mg/ear) were 40.8% and 90.0%, respectively. The IC50 in data set [2] (3×10^-5 M histamine, isolated guinea pig trachea, read-out: Anti-hist. activity IC50) turned out to be 1.1 µM; in the data set with human basophils (anti-human IgE antibody, human basophils, read-out: Histamine release inhibit. IC50), 34 µM. In addition, in data set [2] (setting [4]), the “antihistamine activity (in words)” value was “potent antihistamine activity, though fairly inferior to that of ketotifen fumarate”. Further, the “ability to inhibit histamine release (in words)” value with human basophils (setting [4]) is “superior to ketotifen fumarate in the ability to inhibit histamine release”. For the same compound, the median lethal dose (LD50) at 336 h in data set [3] turned out to be 601 mg/kg.

In general, ED50 refers to the dose that gives a 50% effect, or the effect in half of the subjects. What is called IC50 is the concentration at which inhibition is half-maximal. The LD50 is the dose expected to kill half of the subjects tested. Lower therefore signals a more toxic substance.
